Assay results: US20260374750A1, “LIGANDS SPECIFICALLY TARGETING VESICULAR GLUTAMATE TRANSPORTERS FOR SUPER-RESOLUTION IMAGING” (SORBONNE UNIVERSITÉ, priority 2021, published 2026)

Experiments:
[1] = system: glutamatergic synaptic vesicles (VGLUT1); experiment: Double labeling of isolated glutamatergic synaptic vesicles (VGLUT1 immunolabeling and fluorescent ligand); conditions: FIG. 7; confocal and STED
Description: Tests were performed in order to check the compatibility of the novel fluorescent ligands of the invention and a labeling by immunohistochemistry. Indeed, ultimately, combining a labeling of VAChT by immunohistochemistry and of VGLUT3 by a fluorescent ligand would allow obtaining more information on the distribution of these vesicular transporters in the striatum.
FIG. 7 illustrates the glutamatergic vesicular labeling by immunohistochemistry and the fluorescent ligand referenced G02 according to the invention. In particular, isolated glutamatergic synaptic vesicles were double labeled by immunolabeling of VGLUT1 (in red) and the fluorescent ligand G02 (in green). The observations were carried out using confocal microscopy and STED. […] In order to more accurately analyze the spot colocalization, it seems more appropriate to use lower and therefore more separated concentrations of vesicles.

[2] = system: isolated rat cortex synaptic vesicles; experiment: Confocal and STED observation of isolated synaptic vesicles incubated with fluorescent ligand; conditions: control wells
Description: In view of the preliminary results which are obtained, isolated synaptic vesicles are a model of choice in determining the distribution of the transporters VAChT and VGLUT3 at the vesicular level. The major pitfall in the use of this model is the absence of a protocol of use and results regarding their compatibility with super-resolution microscopy. First, the observability of fluorescent labeling in the vesicles was tested, as well as the effect of STED super-resolution microscopy on this model.
The different manipulations were carried out on rat or mouse synaptic vesicles, coming from the striatum or the cortex.
Material and methods: In a manner similar to vesicular reuptake tests, the fluorescent compounds to be studied are diluted in sucrose buffer (TPS 0.32 M) so as to obtain 10 μM of compound in the final observation medium. […]
Isolated rat cortex synaptic vesicles are then incubated in the presence of ATP and the fluorescent ligand G02 at 37 °C then are observed by confocal microscopy as well as super-resolution microscopy (STED). In order to ensure that the observed labeling corresponds to the fluorescent ligands accumulated on the surface or inside the vesicles, control wells were analyzed. No fluorescent signal is detected in wells containing only isolated vesicles (without fluorescent ligand), or only the fluorescent compound (without vesicles).

Structure (SMILES): Nc1ccc(-c2ccc(C#Cc3cc4cc(C(=O)O)c(=O)oc4cc3O)cc2)cc1 [LSP17-1173, 6-((4′-amino-[1,1′-biphenyl]-4-yl)ethynyl)-7-hydroxy-2-oxo-2H-chromene-3-carboxylic Acid]
- double labeling spots (compatibility with immunohistochemistry) [1]: The obtained spots are clear and resolved
- precipitation in observation medium [2]: does not precipitate in the observation medium
